This is an account of results in publication PMC11768839 (Viruses, 2024).

In series [1] the test system is A549 cells.
Series [2] deals with HCoV-229E. As to the kind of experiment: HCoV-229E intracellular viral RNA accumulation after delayed compound addition. Conditions: compound added 16 hpi, 9 h after addition, MOI 2, Huh7 cells. The series is classed as cell-based.
The format of series [3] is in vivo.
Series [4] is described as follows: Pharmacokinetics in mice. It counts as in vivo.
The test system of series [5] is SARS-CoV-2. It counts as cell-based.
Series [6] deals with SARS-CoV-2 nucleocapsid (N) protein. The experiment in a line: SARS-CoV-2 nucleocapsid (N) protein expression by western blot. Conditions: SARS-CoV-2 SB2, Huh7 cells, immunoblot. It counts as cell-based. (A western blot detects proteins with antibodies after separation by electrophoresis.)
In series [7] the test system is Influenza A Virus (PR8). As to the kind of experiment: Influenza PR8 qPCR assay (viral RNA release into media) in A549 cells. (Real-time PCR tracks product formation cycle by cycle.)
Series [8] concerns SARS-CoV-2. The experiment in a line: SARS-CoV-2 replication in human lung organoids (RTqPCR of media). As to conditions: 2.5 µM added post-infection, SB2, MOI of 2, 3 or 6 days post-infection. The series is classed as cell-based.
Series [9] in a line: Cytotoxicity in Huh7 cells (alamarBlue). Conditions: human, listed with HCoV-229E qPCR assay. The series is classed as cell-based. On the technique in general: Alamar Blue is a resazurin reagent that responds to reducing activity.
The test system of series [10] is HIV-1. Also noted: method as in earlier work. Conditions: HIV-1 replication; cited from earlier work.
Series [11] deals with HCoV-OC43. As to the kind of experiment: HCoV-OC43 replication in human lung organoids (RTqPCR of media). The series is classed as cell-based. Conditions: 2.5 µM added post-infection, MOI of 2, 3 or 6 days post-infection.
Series [12] deals with Influenza A Virus (PR8). As to the kind of experiment: Influenza PR8 TCID50 assay (infectivity) in A549 cells. As to conditions: MOI of 2, A549 cells.
For series [13], the system named is HCoV-229E. As to the kind of experiment: HCoV-229E infectious virus yield by TCID50 assay in Huh7 cells. Conditions: dose reducing HCoV-229E RNA in media by 50% (EC50, 1.2 µM), 24 h.
In series [14] the test system is HCoV-OC43. The experiment in a line: HCoV-OC43 viral release into media (RTqPCR) in Huh7 cells. As to conditions: 2.5 µM, MOI of 2, 24 h.
The test system of series [15] is Coronavirus (HCoV-229E). The experiment in a line: HCoV-229E qPCR assay (viral RNA release into media) in Huh7 cells.
Series [16] relates to HAdV-C5. The experiment in a line: Adenovirus HAdV-C5 virus yield in A549 cells (endpoint dilution). The series is classed as cell-based, human adenovirus serotype 5. As to conditions: 5 µM, HAdV-C5 100 IU/cell, 24 hpi.
A short description of series [17]: in vitro. Conditions: human.

Several values for one entry are separate records, joined by “and”; a condition that tells them apart may be missing. Equal values may be shown once.

For orientation: EC50 means the concentration at which the effect is half-maximal. Usually EC90 stands for the point of the concentration-response curve where the effect stands at 90%. As for `O=[N+]([O-])c1ccc(Nc2ccc(Cl)c(C(F)(F)F)c2)c2nonc12` [Compound 5342191, N-[4-chloro-3-(trifluoromethyl)phenyl]-7-nitro-2,1,3-benzoxadiazol-4-amine], in series [1], the “effect on cell metabolism” value is listed as “limited effect”. The “reduction of viral genomic RNA accumulation” value in series [2] is ~ 50%. In addition, the “body weight / gross necroscopy findings” value in series [3] (5342191-treated mice) is “absence of significant changes in body weight”. Besides, the tolerability result in [3] (daily oral dose of 40 mg/kg over 7 days, mice) is “well tolerated”. Also, the oral bioavailability result in series [4] is “orally bioavailable”. The blood concentration maintained in [4] (oral dose of 30 mg/kg, up to 8 h after administration, 30 mg/kg) was 2 µg/mL and 5.5 µM. Further, the “suppression of the release of SARS-CoV-2” value in series [5] is recorded as “approximately 80%”. In addition, the “reduction of SARS-CoV-2 nucleocapsid (N) protein expression” value in [6] is reported as “approximately 90%”. The half-maximal effective concentration (EC50) in [7] (MOI of 0.01) is 47 ± 13 nM; in series [7] (MOI of 2), 51 ± 42 nM; in series [10], 750 nM; in series [12] it was 75 ± 17 nM; in [15] (MOI of 0.01), 73 ± 13 nM; in [15] (MOI of 2, Huh7 cells), 1200 ± 196 nM. Moreover, the EC90 was 149 ± 55 nM in series [7] (MOI of 0.01); 104 ± 23 nM in series [7] (MOI of 2); 1750 nM in series [10]; 99 ± 8 nM in series [12]; 857 ± 56 nM in series [15] (MOI of 0.01); 2500 ± 282 nM in [15] (MOI of 2, Huh7 cells). The “SARS-CoV-2 replication in human lung organoids” value in series [8] is reported as “effectively blocked”. Further, the CC50 in series [9] (MOI of 0.01) was more than 1000 nM; in series [9] (MOI of 2), 34000 ± 755 nM. In addition, the “HCoV-OC43 replication in human lung organoids” value in series [11] was “effectively blocked”. In addition, the “reduction in infectious virus yield” value in series [13] was “over 90%”. In series [14], the “inhibition of viral release into the media” value is “over 90%”. In series [16], the “reduction in virus yield (maximal effect)” value is recorded as ~ 1000 fold.
In series [9] (MOI of 2), `CC(C)C(=O)OC[C@H]1O[C@@H](n2ccc(NO)nc2=O)[C@H](O)[C@@H]1O` [Molnupiravir, reference compound] yielded a CC50 of more than 100000 nM. For the same compound, in series [15] (MOI of 2, Huh7 cells), the EC50 was 25 ± 9 nM and the EC90 was found to be 137 ± 23 nM.
The corresponding values for `CC(C)(C)NC(=O)N[C@H](C(=O)N1C[C@H]2[C@@H]([C@H]1C(=O)NC(CC1CCC1)C(=O)C(N)=O)C2(C)C)C(C)(C)C` (stereo partly drawn) [Boceprevir, reference compound] are more than 100000 nM, 111 ± 24 nM and 1200 ± 95 nM.
In the case of `NC(=O)c1nc(F)c[nH]c1=O` [Favipiravir], the CC50 in series [17] was more than 100000 nM. In [12], a half-maximal effect (EC50) was put at 1200 ± 135 nM and the 90% effect concentration (EC90) turned out to be 6200 ± 332 nM.
`CCOC(=O)C1=C[C@@H](OC(CC)CC)[C@H](NC(C)=O)[C@@H](N)C1` [Oseltamivir]: in series [17], the CC50 was more than 100000 nM. Also, in series [12], the EC50 was 257 ± 40 nM and the EC90 was 1500 ± 209 nM.
